SMILES strings stand for the structures.

For assay [1], the system named is TNF-α. Put plainly: LPS-induced serum TNF-α in mice (sandwich ELISA). It counts as in vivo, C57/BL6 mice. The method, then: To examine the effect of gaseous CO on the immune system, C57/BL6 mice (B6, Jackson Laboratory, Bar Harbor, Me.) were first exposed to 500 ppm CO in air (Praxair, Danbury, Conn.) for one hour in a sealed chamber before injection of lipopolysaccharide (LPS) (0.3 mg/kg, i.v., Sigma, St Louis, Mo.). After injection, they were exposed to another hour in the CO chamber. Blood samples were collected one hour after LPS injection (through the aortic artery) and the COHb level in whole blood was measured by a whole blood AVOXimeter 4000 (A-VOX Systems, San Antonio, Tex.). Serum samples were separated and were kept at −80° C. until analysis. Serum TNF-α was measured by sandwich ELISA (Biosource, Camarillo, Calif.).
To reveal the therapeutic potential of CO generators, methylene chloride (MC, Sigma, St. Louis, Mo.) was selected as a lead compound. Different concentrations of MC were prepared by using olive oil as a solvent. Mice were treated with MC at 5 mg/kg., 50 mg/kg, and 500 mg/kg, p.o., one hour before LPS administration.
(In general: In an ELISA, binding on a coated surface is turned into a signal by an enzyme label.)

For assay [2], the system named is HO-1. Put plainly: ELISA for HO-1 protein expression in liver. Also noted: species or system rat. The settings on record: ZnPP = pretreatment then CO perfusion; CO = CO only. The method, then:
ELISA for HO-1 protein expression. Livers were homogenized on ice in a Tris-HCl lysis buffer (pH 7.4) containing 0.5% Triton X-100 and protease inhibitors. Flat-bottom microtiter 96-well plates (Nunc) were coated with 7 μg/ml anti-HO-1 mAb (OSA-111, Stressgen, Canada) in PBS for 18 h at room temperature. Unbound Ab was removed by washing (wash buffer: 0.05% Tween 20 in 50 mM phosphate buffer, pH 7.5) and remaining binding sites were blocked by incubation with a 5% BSA/PBS solution (1 h). Recombinant HO-1 (SPP-730) and tissue homogenate were diluted in assay diluent (0.5% BSA/0.05% Tween 20/PBS) and incubated in anti-HO-1 mAb coated wells for 1 h at room temperature. Subsequently, plates were washed three times with wash buffer and incubated with rabbit anti-HO-1 polyclonal antibody (SPA-895, Stressgen; diluted 1:1000 in assay diluent) for 30 min at room temperature. Bound rabbit IgG was detected with a donkey anti-rabbit (gG-HRP conjugate (711-035-152, Jackson Research Laboratories; diluted 1:8000 in assay diluent). Unbound secondary Ab was removed by washing and bound HRP was detected using 1 mg/ml OPD in substrate buffer (0.1% H2O2, 0.1 M citric acid, 0.2 M Na2HPO4, pH 5.0). The color reaction was stopped with 1 M HCl and the optical density at 490 nm was measured.

For assay [3], the system named is anti-MHC class I alloantibodies. Put plainly: Detection of alloantibodies (cytofluorimetry). Format: in vivo, rat. The settings on record: vs recipients of control adenovirus-treated aortas. The method, then:
Detection of alloantibodies. Donor LEW.1W splenocyts were incubated with heat-inactivated serum from ELW.1A recipients, serially diluted in PBS. Cells were then washed and simultaneously incubated with FITC-coupled donkey anti-rat IgG (Jackson Laboratories) and with a biotin-labeled anti-B cell Mab (clone OX33, ECACC). After washing, cells were incubated with phycoerythrin-coupled streptavidin. Serum levels of alloantibodies were determined by cytofluorimetry (FACScalibur, Becton Dickinson, San Jose, Calif.) and reported as the mean channel fluorescence (MCF) at each dilution of serum. A predominance of anti-donor MHC class II alloantibodies, as previously described in certain tolerance models (Cuturi et al., Eur. J. Immunol. 24:1627-31 (1994)), is detected by the binding of alloantibodies only to OX33 positive cells (B cells). The presence of anti-MHC class I alloantibodies results in labeling of OX33 negative (T cells) and positive cells. MCF of alloantibody binding to OX33 negative cells indicated the level of anti-MHC I alloantibodies.

The subject of assay [4] is Louvain rats immunized with collagen type II. Description: Rat collagen-arthritis model. It counts as in vivo. Also noted: arthritic score / Arthritis Score / X-Ray Score: scale not given here. As to the method: To assess the therapeutic potential of methylene chloride as a carbon-monoxide generating compound in this disease model, female Louvain rats weighing between 120 and 150 g were injected intradermally with 0.5 mg native chicken collagen type II solubilized in 0.1M acetic acid and emulsified in incomplete Freund's adjuvant. At the onset of disease (around day 10) animals were divided into three groups. One group was treated daily with vehicle, the second and third groups with 100 mg/kg/day and 500 mg/kg/day methylene chloride (p.o.). Severity of disease was evaluated daily using a quantification method based on standardized levels of swelling and periarticular erythema. Animals were sacrificed on day 28. […] Compared to control animals these differences were statistically significant (p<0.02).
Iodoform and bromoform were compared with methylene chloride as alternative carbon monoxide generating compounds, using the rat collagen arthritis model described in Example 6 above. Briefly, arthritis was induced in a Lovain strain of rats by immunizing the animals with Collagen Type II in Incomplete Freund's Adjuvant. Digitized radiographs were obtained at the completion of the study on day 28. Pharmacokinetics were also determined and the synovial tissue from the inflamed joints of the treated animals was harvested on Day 16 or Day 28 post-immunization. Disease systems were generally evident by Day 10.

Regarding `[C-]#[O+]` [CO, carbon monoxide], the “serum TNF-α levels” value in assay [1] (LPS 0.3 mg/kg i.v., 500 ppm CO in air 1 h before and 1 h after LPS, blood 1 h after LPS) is recorded as 3,347+1393 pg/ml. The “HO-1 protein expression in liver samples (ELISA)” value in assay [2] is reported as 7.51±2.13 ng of HO-1/mg lysate.
Regarding `ClCCl` [methylene chloride], in assay [3], the “levels of anti-MHC class I alloantibodies” value is “no statistical differences”. Also, the entries for the “level of TNF-α” value in assay [1] (MC 5 mg/kg p.o. one hour before LPS), in assay [1] (MC 50 mg/kg p.o. one hour before LPS) and in assay [1] (MC 500 mg/kg p.o. one hour before LPS) were 3720 ± 1666 pg/mL, 3124.2 ± 1147 pg/mL and 2339 ± 770 pg/mL, respectively. Also, the “X-ray score (bone erosion)” value in assay [4] (methylene chloride 100 mg/kg/day) is 2.7+/−0.8; in assay [4] (methylene chloride 500 mg/kg/day), 1.8+/−0.7. Also, the “arthritic score (mean+/−standard error)” value in assay [4] (methylene chloride 100 mg/kg/day p.o., end of study (day 28)) is 3.8+/−1.0. Moreover, in assay [4] (methylene chloride 500 mg/kg/day p.o., end of study (day 28)), the arthritic score is 2.75.

The values are drawn from US20040143025A1, “Carbon monoxide generating compunds for treatment of vascular, inflammatory and immune disorders” (priority 2002, published 2004).
